Measured values: BindingDB's records for doi:10.1016/j.bmcl.2003.11.033 (University of California, 2004)
pIC50: −log10 of the molar value.

Target: Tyrosinase (Agaricus bisporus)
Assay: Inhibitory activity was evaluated against the oxidation of L-3,4-dihydroxyphenylalanine (L-DOPA) catalyzed by mushroom tyrosinase

pIC50: 4.52
Compound: COc1ccc(C=O)c(O)c1 [2-hydroxy-4-methoxybenzaldehyde]
